# In publication doi:10.1101/2021.10.07.463234v2 (biorxiv, 2021):
# Where a name gives a salt, the structure may show the parent alone.
# Molecular target: SARS-CoV-2 Mac1 (Severe acute respiratory syndrome coronavirus 2, UniProt P0DTD1)
# Assay: biochemical
# Details: 100 µM; inhibitor
row,SMILES,%inhibition [%]
1,CO/N=C(\C(=O)N[C@@H]1C(=O)N2C(C(=O)O)=C(CSc3nc(=O)c(O)nn3C)CS[C@H]12)c1csc(N)n1 [Ceftriaxone Sodium Trihydrate],0.1034
2,CC(C)(C)c1nc(-c2cccc(NS(=O)(=O)c3c(F)cccc3F)c2F)c(-c2ccnc(N)n2)s1 [Dabrafenib Mesylate],0.5368
3,CC(C)(C)NCC(O)c1ccc(O)c(CO)c1 (stereo not drawn) [Salbutamol],0
4,CS(=O)(=O)CCNCc1ccc(-c2ccc3ncnc(Nc4ccc(OCc5cccc(F)c5)c(Cl)c4)c3c2)o1 [Lapatinib],0
5,CC(C)c1nc(N(C)S(C)(=O)=O)nc(-c2ccc(F)cc2)c1/C=C/[C@@H](O)C[C@@H](O)CC(=O)O [Rosuvastatin Calcium],0
6,COc1nc2ccc(Br)cc2cc1[C@@H](c1ccccc1)[C@@](O)(CCN(C)C)c1cccc2ccccc12 [Bedaquiline fumarate],0

# Same assay, conditions: read-out: %inhibition
row,SMILES,inhibition at 100 µM [%]
1,O=C(Nc1nc2cccc(-c3ccc(CN4CCS(=O)(=O)CC4)cc3)n2n1)C1CC1 [Filgotinib (GLPG0634)],17
2,FC(F)(F)c1ccc(CNc2ccc(Cc3c[nH]c4ncc(Cl)cc34)cn2)cn1 [Pexidartinib (PLX3397)],0.21
3,CO[C@H]1/C=C/O[C@@]2(C)Oc3c(C)c(O)c4c(O)c(c5c(nc6cc(C)ccn65)c4c3C2=O)NC(=O)/C(C)=C\C=C\[C@H](C)[C@H](O)[C@@H](C)[C@@H](O)[C@@H](C)[C@H](OC(C)=O)[C@@H]1C [Rifaximin],22.3
4,C[C@@H]1[C@H](O)[C@@H](C)/C=C/C=C/C=C/C=C/C=C/C=C/C=C/[C@H](O[C@@H]2O[C@H](C)[C@@H](O)[C@H](N)[C@@H]2O)C[C@@H]2O[C@](O)(C[C@@H](O)C[C@@H](O)[C@H](O)CC[C@@H](O)C[C@@H](O)CC(=O)O[C@H]1C)C[C@H](O)[C@H]2C(=O)O [Amphotericin B],2.16
5,COc1cc(N)c(Cl)cc1C(=O)N[C@H]1CCN(CCCOc2ccc(F)cc2)C[C@H]1OC [Cisapride hydrate],0
6,C[C@H](Oc1ccc(S(C)(=O)=O)cc1C(=O)N1CCN(c2ncc(C(F)(F)F)cc2F)CC1)C(F)(F)F [Bitopertin],0
7,COC(=O)C1=C(C#N)NC(C)=C(C(=O)OC(C)C)C1c1cccc([N+](=O)[O-])c1 (stereo not drawn) [Nilvadipine],0
8,CN(C)CCC(c1ccc(Br)cc1)c1ccccn1 (stereo not drawn) [Brompheniramine hydrogen maleate],9.47
9,COc1ncnc(NS(=O)(=O)c2ccc(N)cc2)c1OC [Sulfadoxine],0
10,O=c1c(-n2ccnn2)c[nH]n1-c1cc(N2CCOCC2)ncn1 [Molidustat (BAY 85-3934)],19.3
11,Clc1ccc(C(Cn2ccnc2)OCc2c(Cl)cccc2Cl)c(Cl)c1 (stereo not drawn) [Isoconazole nitrate],34.7
12,CO/N=C(\C(=O)N[C@@H]1C(=O)N2C(C(=O)[O-])=C(C[n+]3cccc4c3CCC4)CS[C@H]12)c1csc(N)n1 [Cefpirome sulfate],0
13,O=C1CN(/N=C/c2ccc([N+](=O)[O-])o2)C(=O)N1 [Nitrofurantoin],4.04
14,COc1ccc(C[C@H](N)C(=O)N[C@H]2[C@@H](O)[C@H](n3cnc4c(N(C)C)ncnc43)O[C@@H]2CO)cc1 [Puromycin 2HCl],4.39
15,Cn1nnc(-c2ccc(-c3ccc(N4C[C@H](CO)OC4=O)cc3F)cn2)n1 [Tedizolid],0
16,Nc1nc2[nH]cnc2c(=S)[nH]1 [Thioguanine],18.9
17,OC1(c2ccc(Cl)c(C(F)(F)F)c2)CCN(CCCC(c2ccc(F)cc2)c2ccc(F)cc2)CC1 [Penfluridol],5.86
18,CC#CC(=O)N1CCC[C@H]1c1nc(-c2ccc(C(=O)Nc3ccccn3)cc2)c2c(N)nccn12 [Acalabrutinib (ACP-196)],9.75
19,Nc1nc(=O)[nH]cc1F [Flucytosine],0
20,O=C(O)CCCc1ccccc1 [Sodium Phenylbutyrate],6.6
21,CC(C)C[C@H](NC(=O)[C@H](Cc1ccccc1)NC(=O)c1cnccn1)B(O)O [Bortezomib (PS-341)],54.2
22,"O=c1[nH]c(=O)n(C2CCCO2)cc1F (stereo not drawn) [Tegafur (FT-207, NSC 148958)]",0

row,SMILES,inhibition at 100 µM [%]
1,COc1cc(C(=O)NC2CCCNC2)cc(OC)c1OC (stereo not drawn) [Troxipide],19.2
2,CCOC(=O)c1ccc(N)cc1 [Benzocaine hydrochloride],0
3,Cc1onc(-c2ccccc2)c1-c1ccc(S(N)(=O)=O)cc1 [Valdecoxib],9.12
4,CC(=O)O[C@H]1C(=O)[C@@]2(C)[C@H]([C@H](OC(=O)c3ccccc3)[C@]3(O)C[C@H](OC(=O)[C@H](O)[C@@H](NC(=O)c4ccccc4)c4ccccc4)C(C)=C1C3(C)C)[C@]1(OC(C)=O)CO[C@@H]1C[C@@H]2O [Paclitaxel],6.04
5,CO/N=C(\C(=O)N[C@@H]1C(=O)N2C(C(=O)O)=C(COC(N)=O)CS[C@H]12)c1ccco1 [Cefuroxime sodium],0
6,Cc1[nH]c(=O)c(C#N)cc1-c1ccc2nccn2c1 [Olprinone],0
7,CC(C)c1c(C(=O)Nc2ccccc2)c(-c2ccccc2)c(-c2ccc(F)cc2)n1CC[C@@H](O)C[C@@H](O)CC(=O)O [Atorvastatin Calcium],0
8,O=C(O)CCC(=O)c1ccc(-c2ccccc2)cc1 [Fenbufen],0
9,CCOc1cc(N)c(Cl)cc1C(=O)NCC1CN(Cc2ccc(F)cc2)CCO1 (stereo not drawn) [Mosapride],0
10,CC(=O)O[C@]1(C(C)=O)CC[C@H]2[C@@H]3C=C(Cl)C4=CC(=O)CC[C@]4(C)[C@H]3CC[C@@]21C [Chlormadinone acetate],0
11,O=C(C1CCCCC1)N1CC(=O)N2CCc3ccccc3C2C1 (stereo not drawn) [Praziquantel],0
12,c1ccc2[nH]c(-c3cscn3)nc2c1 [Thiabendazole],21.5
13,Cc1nc(=O)c2cc(CN(C)c3ccc(C(=O)N[C@@H](CCC(=O)O)C(=O)O)s3)ccc2[nH]1 [Raltitrexed],24.8
14,CN(C)CCc1c[nH]c2ccc(CS(=O)(=O)N3CCCC3)cc12 [Almotriptan Malate],9.31
15,C#C[C@]1(O)CC[C@H]2[C@@H]3CCc4cc(O)ccc4[C@H]3CC[C@@]21C [Ethinyl Estradiol],0
16,CCOC(=O)N[C@@H]1CC[C@@H]2[C@@H](C1)C[C@H]1C(=O)O[C@H](C)[C@H]1[C@H]2/C=C/c1ccc(-c2cccc(F)c2)cn1 [Vorapaxar],0
17,CC1CCc2cc(F)cc3c(=O)c(C(=O)O)cn1c23 (stereo not drawn) [Flumequine],0
18,CC(=O)NC[C@H]1CN(c2ccc(N3CCOCC3)c(F)c2)C(=O)O1 [Linezolid],0
19,CCn1cc(C(=O)O)c(=O)c2cc(F)c(N3CCNC(C)C3)c(F)c21 (stereo not drawn) [Lomefloxacin],0
20,Cc1ccnc2c1NC(=O)c1cccnc1N2C1CC1 [Nevirapine],20.6
21,CCCCOc1ccc(C(=O)CCN2CCCCC2)cc1 [Dyclonine HCl],0
22,CCn1c(=O)c2c(nc(/C=C/c3ccc(OC)c(OC)c3)n2C)n(CC)c1=O [Istradefylline],28.9

row,SMILES,inhibition at 100 µM [%]
1,O=C(O)CCNC(=O)c1ccc(/N=N/c2ccc(O)c(C(=O)O)c2)cc1 [Balsalazide disodium],0
2,COc1ccccc1O [Guaiacol],0
3,CC(=O)O[C@]1(C(C)=O)CC[C@H]2[C@@H]3C=C(C)C4=CC(=O)CC[C@]4(C)[C@H]3CC[C@@]21C [Megestrol Acetate],23.5
4,CN(C)C(=N)NC(=N)N [Metformin HCl],32.6
5,CC(=O)CCCCn1c(=O)c2c(ncn2C)n(C)c1=O [Pentoxifylline],19.6
6,CC1(C)S[C@@H]2[C@H](NC(=O)C(C(=O)O)c3ccccc3)C(=O)N2[C@H]1C(=O)O (stereo partly drawn) [Carbenicillin disodium],2.9
7,Cc1cc(-c2ccccc2)nnc1NCCN1CCOCC1 [Minaprine dihydrochloride],2.13
8,CNCc1cc(-c2ccccc2F)n(S(=O)(=O)c2cccnc2)c1 [Vonoprazan Fumarate (TAK-438)],0
9,NC(=O)[C@@H](CCC(F)(F)F)N(Cc1ccc(-c2ncon2)cc1F)S(=O)(=O)c1ccc(Cl)cc1 [Avagacestat (BMS-708163)],0
10,O=C(CCCCCCNC(=O)c1cnc(N(c2ccccc2)c2ccccc2)nc1)NO [Ricolinostat (ACY-1215)],3.74
11,CCCCOc1cc(C(=O)NCCN(CC)CC)c2ccccc2n1 [Cinchocaine],0
12,OC(c1ccccc1)(c1ccccc1)C12CC[N+](CCOCc3ccccc3)(CC1)CC2 [Umeclidinium bromide],0
13,COc1cccc(-c2ccc(NC(=O)C3=C(C(=O)O)CCC3)c(F)c2)c1 [Vidofludimus],19.8
14,CCOc1cc2ncc(C#N)c(Nc3ccc(F)c(Cl)c3)c2cc1NC(=O)/C=C/CN(C)C [Pelitinib (EKB-569)],0
15,C=C[C@H]1CN2CC[C@H]1C[C@H]2[C@H](O)c1ccnc2ccc(OC)cc12 [Quinine HCl Dihydrate],0
16,NNC(=O)c1ccncc1 [Isoniazid],24.4
17,C=C1CC[C@H](O)C/C1=C/C=C1\CCC[C@]2(C)[C@@H]([C@H](C)CCCC(C)(C)O)CC[C@@H]12 [Calcifediol],0
18,NC(=O)c1cccnc1 [Nicotinamide (Vitamin B3)],16
19,CCN1CCN(c2cc3c(cc2F)c(=O)c(C(=O)O)cn3C2CC2)CC1 [Enrofloxacin],16.9
20,COc1ccc(-c2ccc3cc(C(=O)O)ccc3c2)cc1[C@]12C[C@H]3C[C@H](C[C@H](C3)C1)C2 [Adapalene],27.7
21,CC[C@@H]([C@H](C)O)n1ncn(-c2ccc(N3CCN(c4ccc(OC[C@@H]5CO[C@@](Cn6cncn6)(c6ccc(F)cc6F)C5)cc4)CC3)cc2)c1=O [Posaconazole],37.1
22,Cc1cc(C)c2c(c1)[C@@H](N(Cc1cc(C(F)(F)F)cc(C(F)(F)F)c1)c1nnn(C)n1)CCCN2C[C@H]1CC[C@H](C(=O)O)CC1 [Evacetrapib (LY2484595)],28.7
